Assay results as given in patent US12195427B2, “MASP-2 inhibitors and methods of use” (priority 2018, dated 2025).
pIC50, pKi: −log10 of the molar value. Where a name gives a salt, the structure may show the parent alone.

Legend:
MASP-2 CCP2-SP = MASP-2 CCP2-SP (Homo sapiens (Human), UniProt O00187); assay: MASP-2 co-crystallization, X-ray crystallography and structure analysis (H-bonds, van der Waals contacts); parameters: van der Waals contact distance, MASP-2 HIS 483 atom CD2 / van der Waals contact distance, MASP-2 HIS 483 atom NE2 / van der Waals contact distance, SER 654 C to compound atom / van der Waals contact distance, SER 654 O to compound atom / van der Waals contact distance, TRP 655 C to compound atom / van der Waals contact distance, MASP-2 GLY 528 atom CA / van der Waals contact distance TRP 655 atom CZ3 / van der Waals contact distance TRP 655 atom N / van der Waals contact distance TRP 655 atom CE3 / van der Waals contact distance GLY 656 atom C / van der Waals contact distance GLY 656 atom CA / van der Waals contact distance GLY 656 atom O / van der Waals contact distance, MASP-2 TYR 607 atom CD1 / van der Waals contact distance, MASP-2 PRO 606 atom O / d(C3,CA1) / d(CA1,N1)2 / d(H4,O1) / d(H4,O2) / d(O1,O2) / d(CA1,O2) / d(CA6,O1) / d(CA6,O2) / d(CA1,C5) / d(O2,H3) / d(N2,C2) / d(CA5,N2) / d(N2,C4) / d(N2,C6) / d(N2,CA3) / d(N2,O3) / d(O4,H2): unit not given beside the values; conditions: for H-bond distance to MASP-2 ASP 627 atom OD2: ASP 627 OD2; for H-bond distance to MASP-2 SER 654 atom O: SER 654 O; for H-bond distance to MASP-2 SER 657 atom O: SER 657 O; for van der Waals contact distance TRP 655 atom CE3: MASP-2 TRP 655 CE3, compound atom in line below; for van der Waals contact distance GLY 656 atom O: MASP-2 GLY 656 O; for van der Waals contact distance SER 657 atom C: MASP-2 SER 657 C, columns c12-c13 (inferred)
Sequence of MASP-2 CCP2-SP (O00187 445-686): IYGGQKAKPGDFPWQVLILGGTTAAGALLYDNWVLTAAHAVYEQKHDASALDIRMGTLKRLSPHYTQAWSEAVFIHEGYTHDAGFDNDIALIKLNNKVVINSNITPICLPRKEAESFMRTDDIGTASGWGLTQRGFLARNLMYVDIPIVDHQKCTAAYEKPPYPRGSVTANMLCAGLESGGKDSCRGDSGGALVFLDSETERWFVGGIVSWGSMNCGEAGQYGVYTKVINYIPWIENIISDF
Sequence of MASP-2 CCP2-SP (O00187 364-432 partner): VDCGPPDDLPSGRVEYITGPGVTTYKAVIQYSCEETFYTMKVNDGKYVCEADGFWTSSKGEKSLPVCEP
How it was run: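 Soaked crystals of recombinant CCP2-SP (E. coli) yield the structures, phased by molecular replacement on 1Q3X pieces. Hydrophobic or nonbonded contacts can also cover atom pairs that are potential hydrogen bonds.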

MASP-2 (CCP1-CCP2-SP) = MASP-2 (CCP1-CCP2-SP) (Homo sapiens (Human), UniProt O00187); assay: Enzymatic Assay for MASP-2 (fluorogenic substrate); type: biochemical
Sequence of MASP-2 (CCP1-CCP2-SP) (O00187 445-686): as the sequence (O00187 445-686) above

Lectin Pathway = Lectin Pathway Activation Assay in Human Serum (mannan-coated ELISA, C3c detection); type: biochemical; conditions: 1% human serum
Description: Microtiter ELISA plate was coated with mannan from Saccharomyces cerevisiae (Sigma-Aldrich, M7504) for overnight at 4° C. in coating buffer [15 mM Na2CO3, 35 mM NaHCO3].

Row | Compound | H-bond distance to MASP-2 ASP 627 atom OD2 (MASP-2 CCP2-SP; Table A1 (H-Bonds)) | H-bond distance to MASP-2 SER 654 atom O (MASP-2 CCP2-SP; Table A1 (H-Bonds)) | H-bond distance to MASP-2 SER 657 atom O (MASP-2 CCP2-SP; Table A1 (H-Bonds)) | van der Waals contact distance, MASP-2 HIS 483 atom CD2 (MASP-2 CCP2-SP; Table A2-1) | van der Waals contact distance TRP 655 atom CE3 (MASP-2 CCP2-SP; Table A2-13) | van der Waals contact distance GLY 656 atom O (MASP-2 CCP2-SP; Table A2-14) | van der Waals contact distance SER 657 atom C (MASP-2 CCP2-SP; Table A2-14) | pKi (MASP-2 (CCP1-CCP2-SP)) | further results
1 | C[C@H](NC(=O)[C@H](N)CCc1ccccc1)C(=O)NCc1ccc(N)nc1 [compound 1007] | 3.27 | 2.94 | 2.88 | 3.38 | 3.69 | 3.85 | 3.87 | > 6.30 | H-bond distance to MASP-2 SER 628 atom O (MASP-2 CCP2-SP; Table A1 (H-Bonds), SER 628 O): 2.59; van der Waals contact distance, MASP-2 PHE 529 atom CD1 (MASP-2 CCP2-SP; Table A2-3): 3.83; van der Waals contact distance, MASP-2 PHE 529 atom CZ (MASP-2 CCP2-SP; Table A2-3): 3.82; van der Waals contact distance, MASP-2 TYR 607 atom CD1 (MASP-2 CCP2-SP; Table A2-4): 3.84; van der Waals contact distance, MASP-2 amino acid atom to compound atom (MASP-2 CCP2-SP; Table A2-9, ARG 630, AA atoms CG, CZ): 3.61; van der Waals contact distance, TRP 655 CA to compound atom (MASP-2 CCP2-SP; Table A2-12): 3.31; van der Waals contact distance GLY 656 atom C (MASP-2 CCP2-SP; Table A2-13, MASP-2 GLY 656 C): 3.74; van der Waals contact distance TRP 655 atom CZ3 (MASP-2 CCP2-SP; Table A2-13, MASP-2 TRP 655 CZ3): 3.78; van der Waals contact distance GLY 656 atom N (MASP-2 CCP2-SP; Table A2-14, MASP-2 GLY 656 N): 3.71
2 | C[C@H](NC(=O)[C@H]1C[C@@H](c2ccccc2)CN1)C(=O)NCc1ccc2c(N)nccc2c1 [compound 1089] | 2.8 | 2.93 | 2.93 | 3.71 | 3.59 | 2.95 | 3.86 | > 6.30 | H-bond distance to MASP-2 GLY 656 atom N (MASP-2 CCP2-SP; Table A1 (H-Bonds), GLY 656 N): 3.3; H-bond distance to MASP-2 GLY 656 atom O (MASP-2 CCP2-SP; Table A1 (H-Bonds), GLY 656 O): 2.82; van der Waals contact distance, MASP-2 HIS 483 atom NE2 (MASP-2 CCP2-SP; Table A2-1): 3.83; van der Waals contact distance, MASP-2 PRO 606 atom O (MASP-2 CCP2-SP; Table A2-4): 3.4; van der Waals contact distance, SER 654 O to compound atom (MASP-2 CCP2-SP; Table A2-12): 3.57
3 | C[C@H](NC(=O)[C@H]1C[C@@H](c2ccccc2)CCN1)C(=O)NCc1ccc(C(=N)N)cc1 [compound 1230, (2R,4S)—N—((S)-1-((4-Carbamimidoylbenzyl)amino)-1-oxopropan-2-yl)-4-phenylpiperidine-2-carboxamide Dihydrochloride] |  |  |  |  |  |  |  |  | pIC50 (Lectin Pathway): > 7.30
4 | Cc1nc(N)ccc1CNC(=O)[C@H](C)NC(=O)[C@H]1C[C@@H](c2cccc(CN)c2)CN1 [compound 1291, (2R,4S)—N—((S)-1-(((6-Amino-2-methylpyridin-3-yl)methyl)amino)-1-oxopropan-2-yl)-4-(3-(aminomethyl)phenyl)pyrrolidine-2-carboxamide] |  |  |  |  |  |  |  | 5.60 to 6.30 | 
5 | C[C@H](NC(=O)[C@H](N)CCc1ccccc1)C(=O)NCc1cc(Cl)ccc1-n1cnnn1 [compound 1325, (R)-2-amino-N—((S)-1-((5-chloro-2-(1H-tetrazol-1-yl)benzyl)amino)-1-oxopropan-2-yl)-4-phenylbutanamide] |  |  |  |  |  |  |  | 5.60 to 6.30 | 
